Measured values as given in patent US4605614A, “Method for measuring plasmin” (Nitto Boseki Co., Ltd., priority 1981, dated 1986).
Where a SMILES comes first, the peptide text is derived from it.

Columns and labels:
[1] = biological target: Plasmin (PL) (Sus scrofa, UniProt P06867); assay type: biochemical, Pig; settings: TABLE 3, PNA substrates; So = 0.54 mmole/l; pH 7.4; 37° C., 10 minutes; 0.32 CU/ml
[2] = biological target: Factor-Xa (FXa) (Bos taurus, UniProt P00743); assay type: biochemical, Cow; settings: TABLE 3, PNA substrates; So = 0.54 mmole/l; pH 8.4; 37° C., 10 minutes; 0.4 U/ml
Chain of Factor-Xa (FXa) (P00743 41-180): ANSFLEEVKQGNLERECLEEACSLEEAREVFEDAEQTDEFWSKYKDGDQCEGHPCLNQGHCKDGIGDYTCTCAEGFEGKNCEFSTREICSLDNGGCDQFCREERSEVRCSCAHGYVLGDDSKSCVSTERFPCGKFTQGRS
Chain of Factor-Xa (FXa) (P00743 234-492): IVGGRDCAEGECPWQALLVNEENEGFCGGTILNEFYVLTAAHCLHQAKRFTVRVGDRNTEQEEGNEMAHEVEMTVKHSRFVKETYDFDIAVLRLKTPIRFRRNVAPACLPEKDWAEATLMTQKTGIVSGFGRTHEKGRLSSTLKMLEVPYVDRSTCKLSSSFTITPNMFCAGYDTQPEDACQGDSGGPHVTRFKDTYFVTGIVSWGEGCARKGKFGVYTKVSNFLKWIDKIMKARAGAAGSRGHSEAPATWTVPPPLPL
Procedure: (§1) The specificities of the novelly synthesized substrates were tested by reacting them with various enzymes respectively.
(§2) (1) Substrate solution concentration: 35 mmole/liter H2 O
(§3) (2) Buffer: Tris-hydrochloric acid buffer 50 mmole/l, NaCl 150 mmole/l (0.875%) was employed, and the pH for reaction was as follows depending on the enzyme.
(§4) 2,6-Xylenol 7.0 mmole+NaIO4 1.5 mmole/0.2N KOH
(§5) 0.5 ml of the buffer solution and 0.05 ml of the enzyme reagent were taken into a silicon-treated hard glass test tube or a plastic test tube, and preheated in a constant temperature bath at 37° C. for 5 minutes. Thereafter, 0.1 ml of the substrate solution was added to effect the enzymatic reaction at 37° C. for 10 minutes. Exactly after 10 minutes, 2.5 ml of the reaction terminating solution or the terminating and color developing reagent solution was added to terminate the enzymatic reaction, and after allowing to stand at 25° C. for 10 minutes, the absorbance at 405 nm or 645 nm was measured, in which [drawing 49]

[3] = biological target: Urokinase (UK) (Homo sapiens, UniProt P00749); assay type: biochemical; settings: TABLE 3, PNA substrates; So = 0.54 mmole/l; pH 8.2; 37° C., 10 minutes; 1000 IU/ml
Procedure: as §1, §2, §3, §4, §5

[4] = biological target: plasmin (pig) (Sus scrofa, UniProt P06867); experiment: Km, Vmax and Vmax/Km of substrates for plasmin (pig); assay type: biochemical, Porcine (pig); settings: for Vmax (× 10^7): 405 nm; for Relative ratio: TABLE 1, V/Km of each sample divided by that of S2251
Chain of plasmin (pig) (P06867 97-809): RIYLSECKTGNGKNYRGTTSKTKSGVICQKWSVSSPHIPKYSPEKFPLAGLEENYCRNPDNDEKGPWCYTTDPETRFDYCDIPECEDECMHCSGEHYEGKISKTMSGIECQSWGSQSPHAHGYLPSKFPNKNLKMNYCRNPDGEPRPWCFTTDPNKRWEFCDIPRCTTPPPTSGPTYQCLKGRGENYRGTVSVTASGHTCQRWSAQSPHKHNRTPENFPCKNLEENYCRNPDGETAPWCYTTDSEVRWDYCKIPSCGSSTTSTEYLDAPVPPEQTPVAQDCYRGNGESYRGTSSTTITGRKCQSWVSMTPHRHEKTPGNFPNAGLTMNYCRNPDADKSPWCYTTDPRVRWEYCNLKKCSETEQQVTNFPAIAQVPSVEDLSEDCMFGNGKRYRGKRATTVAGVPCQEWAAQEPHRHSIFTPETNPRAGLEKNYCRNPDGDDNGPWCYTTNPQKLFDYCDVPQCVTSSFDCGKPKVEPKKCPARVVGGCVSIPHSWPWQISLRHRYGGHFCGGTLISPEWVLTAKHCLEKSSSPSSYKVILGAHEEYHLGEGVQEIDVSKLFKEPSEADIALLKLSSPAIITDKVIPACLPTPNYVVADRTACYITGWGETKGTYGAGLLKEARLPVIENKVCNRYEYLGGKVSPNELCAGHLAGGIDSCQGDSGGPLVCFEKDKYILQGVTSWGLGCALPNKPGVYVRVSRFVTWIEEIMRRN
Source text: The substrates produced by the above examples were used in the measurement of plasmin as follows: The principle of this measurement comprises quantitatively analyzing the decomposition product p-nitroaniline or 3-carboxy-4-hydroxyaniline produced by the enzymatic hydrolysis, by measuring the absorbance (O.D.) directly at 405 nm in the case of p-nitroaniline and, in the case of the 3-carboxy-4-hydroxyaniline at 615 nm after condensing it with 2,6-xylenol in the presence of an oxidant to develop a color.
For the measurements of these constants, the following method is adopted:
The enzyme and the substrate are mixed in a buffer solution and subjected to the hydrolysis for 30 seconds. The concentration of the substrate [S] is changed and the enzyme concentration is maintained constant. By measuring the absorbance (O.D.), the initial velocity of the hydrolysis can be determined. Where 1/V is plotted as a function of 1/[S], there is obtained a Lineweaver and Burk's linea from which graph the Vmax and Km can be determined.

[5] = biological target: Kallikrein (KL) (Sus scrofa, UniProt P00752); assay type: biochemical, Pig; settings: TABLE 3, PNA substrates; So = 0.54 mmole/l; pH 7.9; 37° C., 10 minutes; 1.0 BAEE-U/ml
Chain of Kallikrein (KL) (P00752 8-246): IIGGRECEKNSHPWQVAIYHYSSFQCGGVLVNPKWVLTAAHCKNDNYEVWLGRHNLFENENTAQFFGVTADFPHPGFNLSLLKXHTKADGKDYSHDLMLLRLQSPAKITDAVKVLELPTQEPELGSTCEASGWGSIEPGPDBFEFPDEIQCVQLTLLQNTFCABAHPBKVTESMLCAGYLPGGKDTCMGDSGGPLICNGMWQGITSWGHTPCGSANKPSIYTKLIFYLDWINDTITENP

[6] = biological target: Thrombin (TH) (Bos taurus, UniProt P00735); assay type: biochemical, Cow; settings: TABLE 3, PNA substrates; So = 0.54 mmole/l; pH 8.4; 37° C., 10 minutes; 1.0 NIH/ml
Chain of Thrombin (TH) (P00735 44-625): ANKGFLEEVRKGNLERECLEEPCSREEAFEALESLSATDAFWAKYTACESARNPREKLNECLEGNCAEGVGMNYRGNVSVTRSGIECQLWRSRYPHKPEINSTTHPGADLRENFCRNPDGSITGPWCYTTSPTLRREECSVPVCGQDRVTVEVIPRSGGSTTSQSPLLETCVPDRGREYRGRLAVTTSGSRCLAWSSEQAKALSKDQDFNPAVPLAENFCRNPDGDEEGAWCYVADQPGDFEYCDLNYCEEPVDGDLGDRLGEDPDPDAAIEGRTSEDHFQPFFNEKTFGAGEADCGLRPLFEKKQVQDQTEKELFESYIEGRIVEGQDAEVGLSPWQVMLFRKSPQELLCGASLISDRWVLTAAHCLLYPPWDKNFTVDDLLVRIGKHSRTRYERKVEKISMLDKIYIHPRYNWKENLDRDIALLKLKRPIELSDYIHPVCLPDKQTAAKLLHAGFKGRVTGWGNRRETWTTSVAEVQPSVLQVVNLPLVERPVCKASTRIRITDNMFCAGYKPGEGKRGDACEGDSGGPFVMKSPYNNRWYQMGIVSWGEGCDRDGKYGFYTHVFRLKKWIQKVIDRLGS

[7] = tested on: Human Thrombin; settings: read-out: Michaelis's constant (Km); cited from earlier work
[8] = tested on: coagulation and linear dissolution related enzymes such as thrombin, Factor Xa, UK; settings: prior substrate; cited from earlier work
[9] = tested on: Human Plasmin; settings: read-out: Michaelis's constant (Km); cited from earlier work
[10] = TABLE 1, PNA substrates, plasmin (pig)

Chain of Plasmin (PL) (P06867 97-809): as the sequence (P06867 97-809) above

SMILES: Cc1ccc(CCNC(=O)CC[C@@H](N)C(=O)N[C@@H](Cc2ccccc2)C(=O)N[C@@H](CCCCN)C(=O)Nc2ccc([N+](=O)[O-])cc2)cc1 [NPN-7]
- Selectivity PL, absorbance (O.D.) at 405 nm [1]: 0.427 O.D.
- Selectivity FXa, absorbance (O.D.) at 405 nm [2]: 0.008 O.D.
- Selectivity UK, absorbance (O.D.) at 405 nm [3]: 0.002 O.D.
- Vmax (× 10^7) [4, 10]: 20.908 × 10^7
- Relative ratio [4]: 4.638
- Selectivity KL, absorbance (O.D.) at 405 nm [5]: 0.011 O.D.
- Selectivity TH, absorbance (O.D.) at 405 nm [6]: 0.001 O.D.

SMILES: NCCCC[C@H](NC(=O)[C@H](Cc1ccccc1)NC(=O)[C@H](N)CCC(=O)OCCc1ccccc1)C(=O)Nc1ccc([N+](=O)[O-])cc1 [NPN-8]
- Selectivity PL, absorbance (O.D.) at 405 nm [1]: 0.181 O.D.
- Selectivity FXa, absorbance (O.D.) at 405 nm [2]: 0.005 O.D.
- Selectivity UK, absorbance (O.D.) at 405 nm [3]: 0.003 O.D.
- Vmax (× 10^7) [4, 10]: 28.542 × 10^7
- Relative ratio [4]: 8.019
- Selectivity KL, absorbance (O.D.) at 405 nm [5]: 0.014 O.D.
- Selectivity TH, absorbance (O.D.) at 405 nm [6]: 0 O.D.

SMILES: Cc1ccc(CCOC(=O)CC[C@@H](N)C(=O)N[C@@H](Cc2ccccc2)C(=O)N[C@@H](CCCCN)C(=O)Nc2ccc([N+](=O)[O-])cc2)cc1 [NPN-9]
- Selectivity PL, absorbance (O.D.) at 405 nm [1]: 0.299 O.D.
- Selectivity FXa, absorbance (O.D.) at 405 nm [2]: 0.006 O.D.
- Selectivity UK, absorbance (O.D.) at 405 nm [3]: 0.002 O.D.
- Vmax (× 10^7) [4, 10]: 30.202 × 10^7
- Relative ratio [4]: 6.171
- Selectivity KL, absorbance (O.D.) at 405 nm [5]: 0.016 O.D.
- Selectivity TH, absorbance (O.D.) at 405 nm [6]: 0 O.D.

SMILES: Cc1ccc(C(=O)NCCCC[C@@H](N)C(=O)N[C@@H](Cc2ccccc2)C(=O)N[C@@H](CCCCN)C(=O)Nc2ccc([N+](=O)[O-])cc2)cc1 [NPN-10]
- Selectivity PL, absorbance (O.D.) at 405 nm [1]: 0.335 O.D.
- Selectivity FXa, absorbance (O.D.) at 405 nm [2]: 0.006 O.D.
- Selectivity UK, absorbance (O.D.) at 405 nm [3]: 0.001 O.D.
- Vmax (× 10^7) [4, 10]: 26.218 × 10^7
- Relative ratio [4]: 14.764
- Selectivity KL, absorbance (O.D.) at 405 nm [5]: 0.011 O.D.
- Selectivity TH, absorbance (O.D.) at 405 nm [6]: 0.001 O.D.

SMILES: NCCCC[C@H](NC(=O)[C@H](Cc1ccccc1)NC(=O)[C@H](N)CCCCNS(=O)(=O)c1ccc2ccccc2c1)C(=O)Nc1ccc([N+](=O)[O-])cc1 [NPN-11]
- Selectivity PL, absorbance (O.D.) at 405 nm [1]: 0.171 O.D.
- Selectivity FXa, absorbance (O.D.) at 405 nm [2]: 0.005 O.D.
- Selectivity UK, absorbance (O.D.) at 405 nm [3]: 0.001 O.D.
- Vmax (× 10^7) [4, 10]: 23.895 × 10^7
- Relative ratio [4]: 11.660
- Selectivity KL, absorbance (O.D.) at 405 nm [5]: 0.001 O.D.
- Selectivity TH, absorbance (O.D.) at 405 nm [6]: 0 O.D.

SMILES: N=C(N)NCCC[C@H](NC(=O)[C@@H]1CCCCN1C(=O)[C@H](N)Cc1ccccc1)C(=O)Nc1ccc([N+](=O)[O-])cc1 [S-2238]
- Km [7]: 7 µM

SMILES: CC(C)C[C@H](NC(=O)[C@H](N)C(C)C)C(=O)N[C@@H](CCCCN)C(=O)Nc1ccc([N+](=O)[O-])cc1 [S-2251, H-D-Val-Leu-Lys-PNA, reference compound] (HELM PEPTIDE1{[dV].L.K.[O=[N+]([O-])c1ccc(N[*:1])cc1]}$$$$V2.0)
- selectivity (in words) [8]: comparatively good selectivity
- Selectivity PL, absorbance (O.D.) at 405 nm [1]: 0.306 O.D.
- Km [9]: 300 µM
- Selectivity FXa, absorbance (O.D.) at 405 nm [2]: 0.007 O.D.
- Selectivity UK, absorbance (O.D.) at 405 nm [3]: 0.001 O.D.
- Vmax (× 10^-6) [mole/min/Cu] ([4]; Porcine Plasmin, comparison table in description): 4.0 × 10^-6 mole/min/Cu
- V/Km (× 10^-3) [4, 10]: 11.449 × 10^-3
- Vmax (× 10^7) [4, 10]: 39.876 × 10^7
- Relative ratio [4]: 1.000
- Selectivity KL, absorbance (O.D.) at 405 nm [5]: 0.017 O.D.
- Selectivity TH, absorbance (O.D.) at 405 nm [6]: 0.001 O.D.
